The IC50 is the point on the concentration scale where inhibition reaches its midpoint.

Molecules are shown by their SMILES.

For the first test, the system named is Aβ1-42 production. In words: Cellular assay for inhibition of Aβ1-42 production (H4 APP751 SWE clone 8.20). It counts as cell-based. The conditions noted are these: 19 h, H4 APP751 SWE clone 8.20 cells, 19 h incubation; read-out: Activity Rating (Aβ42 cellular IC50, given as a number). The method, boiled down:
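H4 cells stably expressing APP751 with the Swedish mutation (1.5×10^4 cells/well) incubated with compound for 19 h at 37° C in DMEM with 0.0125% BSA. Secreted Aβ42 measured overnight at 4° C by HTRF-type pairing of 565 (Aβ42 neoepitope) and 26D6 (N-terminal) antibodies. IC50 from curve fit.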
In the case of `COc1cc(Nc2nc3n(n2)CCCCC3c2ccc(F)cc2)ccc1-n1cnc(Cl)n1` (stereo not shown) [Example 33, N-(4-(3-chloro-1H-1,2,4-triazol-1-yl)-3-methoxyphenyl)-9-(4-fluorophenyl)-6,7,8,9-tetrahydro-5H-[1,2,4]triazolo[1,5-a]azepin-2-amine 2,2,2-trifluoroacetate], the IC50 was determined as 9 nM.
Still for that read-out and setting: to `COc1cc(Nc2nc3c(s2)CCCC3c2ccccc2)ccc1-n1cnc(C)n1` (stereo not shown) [Example 67, N-(3-methoxy-4-(3-methyl-1H-1,2,4-triazol-1-yl)phenyl)-4-phenyl-4,5,6,7-tetrahydrobenzo[d]thiazol-2-amine] belongs 19 nM.

Still in this test, the particulars now being: 19 h, H4 APP751 SWE clone 8.20 cells, 19 h incubation; read-out: Activity Rating (based on Aβ42 cellular IC50 values).
In the case of `Cc1ncnn1-c1ccc(Nc2nc3n(n2)CCCC3c2ccc(F)cc2)cc1F` (stereo not shown) [Example 13, N-(3-fluoro-4-(5-methyl-1H-1,2,4-triazol-1-yl)phenyl)-8-(4-fluorophenyl)-5,6,7,8-tetrahydro-[1,2,4]triazolo[1,5-a]pyridin-2-amine], the 50% inhibitory concentration (IC50) is 10 to 100 nM.
Turning to `COc1cc(Nc2nc3n(n2)CCCCC3c2ccc(F)cc2)ccc1-n1cnc(Cl)c1` (stereo not shown) [Example 16, N-(4-(4-Chloro-1H-imidazol-1-yl)-3-methoxyphenyl)-9-(4-fluorophenyl)-6,7,8,9-tetrahydro-5H-[1,2,4]triazolo[1,5-a]azepin-2-amine], the IC50 was less than 10 nM.
Same read-out and setting: with `COc1cc(Nc2nc3n(n2)CCCCC3c2ccc(Cl)cc2Cl)ccc1-n1cnc(Cl)c1` (stereo not shown) [Example 19, N-(4-(4-chloro-1H-imidazol-1-yl)-3-methoxyphenyl)-9-(2,4-dichlorophenyl)-6,7,8,9-tetrahydro-5H-[1,2,4]triazolo azepin-2-amine 2,2,2-trifluoroacetate] the figure was less than 10 nM; with `COc1cc(Nc2nc3n(n2)CCCCC3c2ccc(F)c(F)c2)ccc1-n1cnc(Cl)c1` (stereo not shown) [Example 22, N-(4-(4-chloro-1H-imidazol-1-yl)-3-methoxyphenyl)-9-(3,4-difluorophenyl)-6,7,8,9-tetrahydro-5H-[1,2,4]triazolo[1,5-a]azepin-2-amine 2,2,2-trifluoroacetate], less than 10 nM; with `Cc1ncn(-c2ccc(Nc3nc4n(n3)CCCCC4c3ccc(F)cc3)cc2F)n1` (stereo not shown) [Example 25, N-(3-fluoro-4-(3-methyl-1H-1,2,4-triazol-1-yl)phenyl)-9-(4-fluorophenyl)-6,7,8,9-tetrahydro-5H-[1,2,4]triazolo[1,5-a]azepin-2-amine], 10 to 100 nM.
Same read-out and setting: with `COc1cc(Nc2nc3n(n2)CCCCC3c2ccc(F)cc2)c(F)cc1-n1cnc(C)n1` (stereo not shown) [Example 28, N-(2-fluoro-5-methoxy-4-(3-methyl-1H-1,2,4-triazol-1-yl)phenyl)-9-(4-fluorophenyl)-6,7,8,9-tetrahydro-5H-[1,2,4]triazolo[1,5-a]azepin-2-amine 2,2,2-trifluoroacetate] the figure was 10 to 100 nM; with `COc1cc(Nc2nc3n(n2)CCCC[C@H]3c2ccc(F)cc2)c(F)cc1-n1cnc(C)n1` [Example 29, (S)—N-(2-fluoro-5-methoxy-4-(3-methyl-1H-1,2,4-triazol-1-yl)phenyl)-9-(4-fluorophenyl)-6,7,8,9-tetrahydro-5H-[1,2,4]triazolo[1,5-a]azepin-2-amine], 10 to 100 nM; with `COc1cc(Nc2nc3n(n2)CCCCC3c2ccc(OC(F)(F)F)cc2)ccc1-n1cnc(Cl)c1` (stereo not shown) [Example 31, N-(4-(4-chloro-1H-imidazol-1-yl)-3-methoxyphenyl)-9-(4-(trifluoromethoxy)phenyl)-6,7,8,9-tetrahydro-5H-[1,2,4]triazolo[1,5-a]azepin-2-amine 2,2,2-trifluoroacetate], less than 10 nM.
Same read-out and setting: to `COc1cc(Nc2nc3n(n2)CCCCC3c2ccc(Cl)cc2)ccc1-n1cnc(Cl)c1` (stereo not shown) [Example 32, N-(4-(4-chloro-1H-imidazol-1-yl)-3-methoxyphenyl)-9-(4-chlorophenyl)-6,7,8,9-tetrahydro-5H-[1,2,4]triazolo[1,5-a]azepin-2-amine 2,2,2-trifluoroacetate] belongs less than 10 nM; to `COc1cc(Nc2nc3n(n2)CCCCC3c2ccc(Cl)cc2)ccc1-c1cnn(C)c1` (stereo not shown) [Example 34, 9-(4-chlorophenyl)-N-(3-methoxy-4-(1-methyl-1H-pyrazol-4-yl)phenyl)-6,7,8,9-tetrahydro-5H-[1,2,4]triazolo[1,5-a]azepin-2-amine 2,2,2-trifluoroacetate], 10 to 100 nM; to `COc1cc(Nc2nc3n(n2)CCCCC3c2ccc(F)cc2F)ccc1-n1cnc(Cl)c1` (stereo not shown) [Example 35, N-(4-(4-chloro-1H-imidazol-1-yl)-3-methoxyphenyl)-9-(2,4-difluorophenyl)-6,7,8,9-tetrahydro-5H-[1,2,4]triazolo[1,5-a]azepin-2-amine 2,2,2-trifluoroacetate], less than 10 nM.
In the case of `COc1cc(Nc2nc3n(n2)CCCCC3c2cc(F)cc(F)c2)ccc1-n1cnc(Cl)c1` (stereo not shown) [Example 38, N-(4-(4-chloro-1H-imidazol-1-yl)-3-methoxyphenyl)-9-(3,5-difluorophenyl)-6,7,8,9-tetrahydro-5H-[1,2,4]triazolo[1,5-a]azepin-2-amine], the IC50 is less than 10 nM.
Same read-out and setting: with `COc1cc(Nc2nc3n(n2)CCCCC3c2ccc(Cl)nc2)ccc1-n1cnc(Cl)c1` (stereo not shown) [Example 41, N-(4-(4-chloro-1H-imidazol-1-yl)-3-methoxyphenyl)-9-(6-chloropyridin-3-yl)-6,7,8,9-tetrahydro-5H-[1,2,4]thiazolo[1,5-a]azepin-2-amine 2,2,2-trifluoroacetate] the figure was 10 to 100 nM.
In the case of `COc1cc(Nc2nc3n(n2)CCCCC3n2cc(Cl)cn2)ccc1-n1cnc(Cl)c1` (stereo not shown) [Example 42, N-(4-(4-chloro-1H-imidazol-1-yl)-3-methoxyphenyl)-9-(4-chloro-1H-pyrazol-1-yl)-6,7,8,9-tetrahydro-5H-[1,2,4]triazolo[1,5-a]azepin-2-amine 2,2,2-trifluoroacetate], the IC50 lay within 10 to 100 nM.
On the same count and under the same terms, to `COc1cc(Nc2nc3n(n2)CCCCC3c2ccc(F)cc2)ccc1-n1cnc(C(F)F)c1` (stereo not shown) [Example 43, N-(4-(4-(difluoromethyl)-1H-imidazol-1-yl)-3-methoxyphenyl)-9-(4-fluorophenyl)-6,7,8,9-tetrahydro-5H-[1,2,4]triazolo[1,5-a]azepin-2-amine 2,2,2-trifluoroacetate] belongs 10 to 100 nM.
Still for that read-out and setting: to `COc1cc(Nc2nc3n(n2)CCCCC3c2cccc(F)c2)ccc1-n1cnc(Cl)c1` (stereo not shown) [Example 44, N-(4-(4-chloro-1H-imidazol-1-yl)-3-methoxyphenyl)-9-(3-fluorophenyl)-6,7,8,9-tetrahydro-5H-[1,2,4]triazolo[1,5-a]azepin-2-amine] belongs less than 10 nM.
As to `COc1cc(Nc2nc3n(n2)CCCCC3c2ccc(F)cc2)ccc1-c1cnnc(C)c1` (stereo not shown) [Example 47, 9-(4-fluorophenyl)-N-(3-methoxy-4-(6-methylpyridazin-4-yl)phenyl)-6,7,8,9-tetrahydro-5H-[1,2,4]triazolo[1,5-a]azepin-2-amine], the IC50 lay in the range of 10 to 100 nM.
The same measure, in the same setting: to `Fc1ccc(C2CCCCn3nc(Nc4cc(F)c(-n5cnc(Cl)c5)c(F)c4)nc32)cc1` (stereo not shown) [Example 48, N-(4-(4-chloro-1H-imidazol-1-yl)-3,5-difluorophenyl)-9-(4-fluorophenyl)-6,7,8,9-tetrahydro-5H-[1,2,4]triazolo[1,5-a]azepin-2-amine] belongs less than 10 nM; to `COc1cc(Nc2nc3n(n2)CCCCC3c2ccc(F)cc2)cc(F)c1-n1cnc(Cl)c1` (stereo not shown) [Example 49, N-(4-(4-chloro-1H-imidazol-1-yl)-3-fluoro-5-methoxyphenyl)-9-(4-fluorophenyl)-6,7,8,9-tetrahydro-5H-[1,2,4]triazolo[1,5-a]azepin-2-amine], less than 10 nM; to `COc1cc(Nc2nc3n(n2)CCCCC3c2cc(F)c(F)c(F)c2)ccc1-n1cnc(Cl)c1` (stereo not shown) [Example 50, N-(4-(4-chloro-1H-imidazol-1-yl)-3-methoxyphenyl)-9-(3,4,5-trifluorophenyl)-6,7,8,9-tetrahydro-5H-[1,2,4]triazolo[1,5-a]azepin-2-amine], less than 10 nM.
The same measure, in the same setting: with `COc1cc(Nc2nc3n(n2)CCCCC3c2cccc(Cl)c2)ccc1-n1cnc(Cl)c1` (stereo not shown) [Example 53, N-(4-(4-chloro-1H-imidazol-1-yl)-3-methoxyphenyl)-9-(3-chlorophenyl)-6,7,8,9-tetrahydro-5H-[1,2,4]triazolo azepin-2-amine] the figure was less than 10 nM; with `COc1cc(Nc2nc3n(n2)CCCCC3c2ccccc2F)ccc1-n1cnc(Cl)c1` (stereo not shown) [Example 56, N-(4-(4-chloro-1H-imidazol-1-yl)-3-methoxyphenyl)-9-(2-fluorophenyl)-6,7,8,9-tetrahydro-5H-[1,2,4]triazolo[1,5-a]azepin-2-amine], less than 10 nM; with `COc1cc(Nc2nc3n(n2)CCCCC3c2ccc(C#N)cc2)ccc1-n1cnc(Cl)c1` (stereo not shown) [Example 57, 4-(2-(4-(4-chloro-1H-imidazol-1-yl)-3-methoxyphenylamino)-6,7,8,9-tetrahydro-5H-[1,2,4]triazolo[1,5-a]azepin-9-yl)benzonitrile], 10 to 100 nM.
On the same count and under the same terms, with `COc1cc(Nc2nc3n(n2)CCCCC3c2ccc(F)cc2)ccc1-c1nc(C)no1` (stereo not shown) [Example 60, 9-(4-fluorophenyl)-N-(3-methoxy-4-(3-methyl-1,2,4-oxadiazol-5-yl)phenyl)-6,7,8,9-tetrahydro-5H-[1,2,4]triazolo[1,5-a]azepin-2-amine] the figure was 100 to 1000 nM; with `COc1cc(Nc2nc3n(n2)CCCCC3c2ccc(F)cc2)ccc1-c1cc(C)no1` (stereo not shown) [Example 61, 9-(4-fluorophenyl)-N-(3-methoxy-4-(3-methylisoxazol-5-yl)phenyl)-6,7,8,9-tetrahydro-5H-[1,2,4]triazolo[1,5-a]azepin-2-amine], 100 to 1000 nM; with `COc1cc(Nc2nc3c(s2)CCCC3c2ccccc2)ccc1-n1cnc(Cl)c1` (stereo not shown) [Example 68, N-(4-(4-chloro-1H-imidazol-1-yl)-3-methoxyphenyl)-4-phenyl-4,5,6,7-tetrahydrobenzo[d]thiazol-2-amine], 10 to 100 nM.

Source of the values: patent US8349880B2, “Bicyclic compounds for the reduction of beta-amyloid production” (Bristol-Myers Squibb Company, priority 2009, dated 2013).
